{"source": "ChEMBL document CHEMBL1157174", "about": "“Electronically stabilized versions of the antimalarial acetal trioxanes artemether and artesunate” (Bioorg Med Chem, 2008)", "note": "Activity calls are given as the source filed them. The rule behind the calls is not given here."}
{"system": "Plasmodium berghei", "assay": "Antimalarial activity against Plasmodium berghei infected mice (Mus musculus) at 30 mg/kg peroral dose", "type": "functional, organism-based", "parameters": "dose 30 mg/kg"}
{"smiles": "CCCCCc1ccc(C(=O)O[C@@H]2O[C@@H]3O[C@]4(C)CC[C@H]5[C@H](C)CC[C@H]([C@@]35OO4)[C@@]2(C)S(=O)(=O)c2ccccc2)cc1", "Activity": "inactive"}
{"smiles": "C[C@@H]1CC[C@@H]2[C@]34OO[C@@](C)(CC[C@@H]13)O[C@H]4O[C@@H](O)[C@]2(C)S(=O)(=O)c1ccccc1", "Activity": "inactive"}
{"smiles": "CO[C@@H]1O[C@@H]2O[C@]3(C)CC[C@H]4[C@H](C)CC[C@@H]([C@@]1(C)F)[C@@]24OO3", "Activity": "inactive"}
{"smiles": "C[C@@H]1CC[C@@H]2[C@]34OO[C@@](C)(CC[C@@H]13)O[C@H]4O[C@H](O)[C@@]2(C)S(C)(=O)=O", "Activity": "inactive"}
{"smiles": "CCCCCCCCCCCCCCCCCC(=O)O[C@@H]1O[C@@H]2O[C@]3(C)CC[C@H]4[C@H](C)CC[C@H]([C@@]24OO3)[C@@]1(C)S(C)(=O)=O", "Activity": "inactive"}
{"smiles": "C[C@@H]1CC[C@@H]2[C@]34OO[C@@](C)(CC[C@@H]13)O[C@H]4O[C@@H](O)[C@]2(C)S(C)(=O)=O", "Activity": "inactive"}
{"smiles": "C[C@@H]1CC[C@@H]2[C@]34OO[C@@](C)(CC[C@@H]13)O[C@H]4OC(O)[C@]2(C)F", "note": "(stereo partly specified)", "Activity": "inactive"}
{"smiles": "C[C@@H]1CC[C@@H]2[C@]34OO[C@@](C)(CC[C@@H]13)O[C@H]4OC(=O)[C@]2(C)S(C)(=O)=O", "Activity": "inactive"}
{"smiles": "CO[C@H]1O[C@@H]2O[C@]3(C)CC[C@H]4[C@H](C)CC[C@@H]([C@@]1(C)F)[C@@]24OO3", "Activity": "inactive"}
{"smiles": "C[C@@H]1CC[C@@H]2[C@]34OO[C@@](C)(CC[C@@H]13)O[C@H]4OC(=O)[C@@]2(C)S(C)(=O)=O", "Activity": "inactive"}
{"smiles": "CCCCCCCCCCc1ccc(C(=O)O[C@@H]2O[C@@H]3O[C@]4(C)CC[C@H]5[C@H](C)CC[C@H]([C@@]35OO4)[C@@]2(C)S(C)(=O)=O)cc1", "Activity": "inactive"}
